Source: publication PMC12423301, “Astrocytic monoamine oxidase B (MAOB)–gamma-aminobutyric acid (GABA) axis as a molecular brake on repair following spinal cord injury” (Signal Transduction and Targeted Therapy, 2025)
Entries after “also recorded” stand apart in the source; their conditions may differ.

Tests used:
rat SCI model [1] = assay: Immunohistochemistry of injured rat spinal cord; format: in vivo, Sprague-Dawley (SD) rats
Method: Immunohistochemistry was performed as previously described.[70] The tissue sections were blocked and treated with primary antibodies. After overnight incubation at 4 °C, species-specific fluorescent secondary antibodies were applied for visualization. The tissue sections were then stained with 4’,6-diamidino-2-phenylindole (DAPI) during mounting. This protocol allows a detailed assessment of various cellular markers involved in SCI and recovery processes.
The secondary antibodies used included FITC-donkey anti-mouse IgG (H + L) (1:150, 715-095-151), Cy^TM3-donkey anti-mouse IgG (H + L) (1:600, 715-165-151), FITC-donkey anti-rabbit IgG (H + L) (1:150, 711-095-152), Alexa Fluor 594-donkey anti-rabbit IgG (H + L) (1:500, 711-585-152), Alexa Fluor 647-donkey anti-rabbit IgG (H + L) (1:500, 711-605-152), Cy^TM3-donkey anti-chicken IgG (H + L) (1:600, 703-165-155), DyLightTM405-donkey anti-chicken IgY + + (H + L) (1:600, 703-476-155), Alexa Fluor 488-donkey anti-chicken IgY (IgG) (H + L) (1:500, 703-545-155), Alexa Fluor 594-donkey anti-chicken IgY (IgG) (H + L) (1:500, 703-585-155), Alexa Fluor 488-donkey anti-goat IgG (H + L) (1:500, 705-545-003), and Alexa Fluor 647-donkey anti-goat IgG (H + L) (1:300, 705-606-147). All secondary antibodies were purchased from Jackson ImmunoResearch.
The fluorescence images were observed via confocal laser scanning microscopy (LSM700 or LSM710, Carl Zeiss), and analyzed via the ImageJ (NIH) software. For visualizing the mCh-positive signals of proliferating or proliferated cells, Z-stack images acquired in 1-μm steps were processed for 3D surface rendering of mCh-positive signals using IMARIS software (version 9.0.1, Oxford Instruments).

rat SCI model [2] = assay: Ki67 promoter dual-virus labeling of proliferating cells; format: in vivo, Sprague-Dawley (SD) rats; details: SCI + KDS 2w, PI 10w
[3] = Blood chemistry and liver function in monkey SCI model; format: in vivo, cynomolgus macaques (Macaca fascicularis)
Method: Blood samples were collected from the animals via the radial or femoral vein at three time points: 2 days, 2 weeks, and 5 weeks post-injury. All the animals were fasted for approximately 16 h prior to each collection, with water provided ad libitum. Approximately 2.0 mL of blood was drawn and placed into tubes without anticoagulant and left at room temperature for at least 90 min. The samples were then centrifuged at 3000 rpm for 10 min at room temperature to separate the serum. Finally, the serum samples were analyzed for creatinine (CREA), alkaline phosphatase (ALP), gamma-glutamyl transpeptidase (GGT), total bilirubin (TBIL), ALB, ALT, and aspartate aminotransferase (AST) levels. These biochemical parameters were measured using a TBA 120FR chemistry analyzer (Toshiba Co.).

[4] = test system: white matter stroke rat model; details: cited from earlier work
[5] = GLP toxicity tests in monkeys
[6] = SCI+KDS 10mpk, 20mpk, and 30mpk vs SCI+V, PI 10w
[7] = SCI+KDS 1d/Re vs SCI+V and SCI+KDS 1d/No, PI 10w

SMILES: CS(=O)(=O)O.C[C@H](NCc1ccc(-c2ccc(C(F)(F)F)cc2)cc1)C(N)=O [KDS2010, (S)-2-(((4’-Trifluoromethylbiphenyl-4-yl)methyl)amino)propanamide methane-sulfonate]
- GFAP intensity (rat SCI model [1]; KDS2010 treatment compared with SCI + V): significantly reduced
- intensity of TrkB in neurons, oligodendrocytes, and astrocytes (rat SCI model [1]; MAOB inhibition from the subacute phase, PI 10w): significantly increased
- neurons positive for both Ki67 and NeuN (rat SCI model [1]; SCI + KDS 2w vs SCI + V, PI 10w): significantly increased; also recorded: significant increase
- intensity of GABA in GFAP-positive astrocytes (rat SCI model [1]; SCI + KDS 2w, 10 mpk, PI 10w): significantly recovered; also recorded: significantly attenuated
- MAP2 intensity (rat SCI model [1]; SCI + KDS 2w, PI 10w): fully restored
- MBP intensity (rat SCI model [1]; SCI + KDS 2w, PI 10w): significant recovery
- expression of astrocytic GFAP and MAOB (rat SCI model [1]; SCI + KDS 2w, PI 10w): returned to normal levels
- intensity of proBDNF in astrocytes and neurons (rat SCI model [1]; SCI + KDS 2w, PI 10w): significantly increased
- number of NeuN-positive neurons (rat SCI model [1]; SCI + KDS 2w, PI 10w): significant recovery
- oligodendrocytes positive for both Ki67 and MBP (rat SCI model [1]; SCI + KDS 2w, PI 10w): substantial population; also recorded: significantly increased
- intensity of GABA and astrocytic DAO (rat SCI model [1]; SCI+KDS 6w): significantly reduced
- intensity of proBDNF (rat SCI model [1]; SCI+KDS 6w vs SCI+V): significantly increased
- astrocytic GFAP and MAOB expression (rat SCI model [1]; SCI+KDS 6w vs SCI+V, PI 14w): significantly decreased
- intensity of MAP2 (rat SCI model [1]; SCI+KDS 6w vs SCI+V, PI 14w): significant increase
- intensity of MBP-positive TrkB (rat SCI model [1]; SCI+KDS 6w vs SCI+V, PI 14w): significantly increased
- intensities of GFAP and GABA (rat SCI model [1]; [6]): significantly reduced
- intensity of MAP2 (rat SCI model [1]; [6]): significant increase
- intensity of MBP (rat SCI model [1]; [6]): significant recovery
- intensity of MBP-positive TrkB (rat SCI model [1]; [6]): significant recovery
- intensity of astrocytic DAO (rat SCI model [1]; [6]): significantly decreased
- intensity of proBDNF (rat SCI model [1]; [6]): significantly increased
- GFAP levels (rat SCI model [1]; SCI+KDS 1d/No): persistently high GFAP levels
- alternative diamine oxidase (DAO) pathway (rat SCI model [1]; SCI+KDS 1d/No): activated
- intensity of GABA and astrocytic DAO (rat SCI model [1]; SCI+KDS 1d/Re): significantly reduced
- intensity of proBDNF (rat SCI model [1]; SCI+KDS 1d/Re vs SCI+V and SCI+KDS 1d/No): significantly increased
- astrocytic GFAP and MAOB expression (rat SCI model [1]; [7]): significantly decreased
- intensity of MAP2 (rat SCI model [1]; [7]): significant increase
- astrocytic MAOB expression (rat SCI model [1]; all doses (10mpk, 20mpk, 30mpk) vs SCI+V, PI 10w): significant reduction
- expression of CSPGs (neurocan, phosphacan) (rat SCI model [1]; rat SCI, KDS2010 treatment): notably reduced
- mCh-positive signals (axon fibers from proliferating/proliferated cells) (rat SCI model [2]): traversed the core of the injury site
- signs of hepatic and muscle stress ([3]; 3 mpk): no signs of stress
- creatine kinase (CK) and alanine transaminase (ALT) levels ([3]; 10 mpk, PI 2w): transient increases
- CK and ALT levels ([3]; 10 mpk, PI 5w): returned to normal
- albumin (ALB) levels ([3]; 10 mpk, PI 5w): moderate reduction
- No-Observed-Adverse-Effect Level (NOAEL) ([3]; monkey SCI model): 3 mpk
- motor performance [4]: improve motor performance
- adverse effects ([5]; oral 0, 10, 20, and 40 mg/kg for 4 weeks, 2 weeks recovery): no adverse effects related to the test substance
- mortality ([5]; oral 2 weeks, 100 mg/kg/day male and female, 50 mg/kg/day male): a dying condition or mortality was observed
